Reference: patent publication US9238019B2, “Antitussive and bronchodilator uses for enaminone ester” (UNIVERSITY OF KUWAIT, priority 2006, dated 2016)

What was measured:
[1] = system: guinea pigs; experiment: Citric acid-induced cough in conscious guinea pigs (whole body plethysmography); assay type: in vivo, guinea pig; conditions: 100 mg/kg in DMSO intraperitoneally, 1 h before citric acid (0.6 M) aerosol; coughs counted over 15 min; vs vehicle group; FIG. 2
Protocol: (§1) In order to test the effectiveness of enaminone ester E121 as an antitussive, two groups of guinea pigs were established. Group 1 was a control group, which consisted of ten guinea pigs, who were administered vehicle only (100% dimethyl sulfoxide [DMSO]) intraperitoneally. Group 2 was a test group, which consisted of ten guinea pigs, who were administered enaminone E121 (100 mg/kg in DMSO) intraperitoneally (i.e., via intraperitoneal injection). Each group was separately placed in a transparent whole body plythesmography box (Buxco, Troy, N.Y.) for testing one hour after administration of the vehicle or the enaminone ester E121, respectively.
Each group was allowed a settling period in the whole body plethysmograph, after which baseline airway function was recorded for 2 minutes before administration of an aerosol. Animals in each group were then exposed to citric acid (0.6 M) aerosol for 10 minutes, during which cough and airway function were recorded, and for an additional 5 minutes thereafter (a total of 15 minutes). The aerosols were generated using a DeVilbiss aerogen ultrasonic nebulizer (DeVilbiss, Somerset, Pa.), the nebulized spray having an aerodynamic mass median diameter droplet size range of […] (manufacturer's indication). […]
Coughs were recorded from conscious, unrestrained guinea pigs manually by a trained observer as confirmation. […]

[2] = system: guinea pigs; experiment: Airway obstruction (enhanced pause, Penh) during citric acid aerosol exposure; assay type: in vivo, guinea pig; conditions: 100 mg/kg in DMSO intraperitoneally; citric acid (0.6 M) aerosol; vs vehicle group; FIG. 3
Protocol: as §1
Each group was allowed a settling period in the whole body plethysmograph, after which baseline airway function was recorded for 2 minutes before administration of an aerosol. Animals in each group were then exposed to citric acid (0.6 M) aerosol for 10 minutes, during which cough and airway function were recorded, and for an additional 5 minutes thereafter (a total of 15 minutes). […]
The pressure differences between the main chamber of the whole body plethysmograph containing the animals and a reference chamber (box pressure signal) were measured. […]

[3] = system: guinea pig bronchial preparations pre-contracted with carbachol; experiment: Agonist-induced relaxation of guinea pig bronchial ring preparations pre-contracted with carbachol; conditions: concentration response curves repeated after one hour; compared with salbutamol
Protocol: Two groups of guinea pigs, each group containing twelve guinea pigs, were decapitated under light ether anesthesia and the tracheas were dissected out with the lungs en bloc. The origin of bifurcation of the trachea into bronchioles was identified after removal of the excess connective tissue. The isolated bronchioles were cut into ring segments of 4 mm in length. The preparations were mounted in organ baths containing 25 mL Krebs-Henseleit (KH) solution at pH 7.4, maintained at 37° C. and aerated with a 95% O2 and 5% CO2 mixture. The preparations were left to stabilize for 45 minutes, changing the KH solution at 15-minute intervals. A pre-tension of 0.75 gm was applied, and a stabilization period of 45 minutes was allowed until a stable baseline tone was obtained. Isolated segments of the bronchioles were pre-contracted with carbachol (3 μM). Responses of the carbachol pre-contracted bronchial ring segments to the different agonists were determined by measurement of changes in the isometric tension, using computerized automatic organ bath analyzing instruments.
Bronchodilator responses to salbutamol (10^−9-3×10^−4 M) and enaminone ester E121 (10^−9-10^−4 M) were investigated on different preparations of the bronchioles. […] The bronchodilator responses were expressed as a percentage reduction of the carbachol induced pre-contraction. […]

[4] = Solid-state stability; assay type: physicochemical; conditions: room temperature

stability of the solid [4]: stable solid at room temperature
Compound: CCOC(=O)C1C(=O)C=C(Nc2ccc(Cl)cc2)CC1C (stereo not shown) [enaminone E121, ethyl 4-[(4-chlorophenyl)amino]-6-methyl-2-oxocyclohex-3-en-1-oate]
number of coughs [1]: substantially lower incidence of coughs
enhanced pause (Penh), bronchoconstriction or airway obstruction [2]: less bronchoconstriction or airway obstruction
tachyphylaxis of airway smooth muscle relaxant effect [3]: lower levels of tachyphalaxis than salbutamol
